# From US9840509B2, “Heterocyclic compounds” (CADILA HEALTHCARE LIMITED, priority 2014, dated 2017)
# Columns and labels:
# CYP 2C19 = molecular target: T1, CYP 2C19 (Homo sapiens, UniProt P33261); assay: CYP inhibition in human liver microsomes, 2C19; assay type: in vitro ADME; conditions: pH 7.4, @ 10 μM concn
# T1 construct: from tissue; host or cells: human liver microsomes
# Outline: (§1)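 Human liver microsomes in 100 mM phosphate pH 7.4 with CYP-specific probe substrate were incubated with test compound at […] and 10 μM, started with 1 mM NADPH at 37° C. Reactions were stopped with acetonitrile, and marker-reaction metabolites were quantified by LC-MS/MS. Final solvent was ≤0.2%.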
# CYP 2C8 = molecular target: T2, CYP 2C8 (Homo sapiens, UniProt P10632); assay: CYP inhibition in human liver microsomes, 2C8; assay type: in vitro ADME; conditions: pH 7.4, @ 10 μM concn
# T2 construct: from tissue; host or cells: human liver microsomes
# T2 sequence (P10632 1-490): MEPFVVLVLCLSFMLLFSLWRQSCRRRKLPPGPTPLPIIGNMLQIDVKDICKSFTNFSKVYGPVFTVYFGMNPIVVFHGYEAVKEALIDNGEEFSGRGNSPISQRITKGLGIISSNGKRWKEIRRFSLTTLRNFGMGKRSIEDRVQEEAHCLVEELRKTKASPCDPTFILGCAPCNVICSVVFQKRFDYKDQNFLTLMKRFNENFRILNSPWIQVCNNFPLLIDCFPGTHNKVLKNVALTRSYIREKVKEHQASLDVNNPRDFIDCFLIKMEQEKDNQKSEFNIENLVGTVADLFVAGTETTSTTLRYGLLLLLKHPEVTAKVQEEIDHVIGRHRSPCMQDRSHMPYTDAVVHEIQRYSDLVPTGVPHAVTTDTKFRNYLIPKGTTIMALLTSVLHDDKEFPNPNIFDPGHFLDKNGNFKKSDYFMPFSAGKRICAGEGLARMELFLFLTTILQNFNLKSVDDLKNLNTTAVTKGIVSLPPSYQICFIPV
# Outline: as §1
# CYP 1A2 = molecular target: T3, CYP 1A2 (Homo sapiens, UniProt P05177); assay: CYP inhibition in human liver microsomes, 1A2; assay type: in vitro ADME; conditions: pH 7.4, @ 10 μM concn
# T3 construct: from tissue; host or cells: human liver microsomes
# T3 sequence (P05177 1-516): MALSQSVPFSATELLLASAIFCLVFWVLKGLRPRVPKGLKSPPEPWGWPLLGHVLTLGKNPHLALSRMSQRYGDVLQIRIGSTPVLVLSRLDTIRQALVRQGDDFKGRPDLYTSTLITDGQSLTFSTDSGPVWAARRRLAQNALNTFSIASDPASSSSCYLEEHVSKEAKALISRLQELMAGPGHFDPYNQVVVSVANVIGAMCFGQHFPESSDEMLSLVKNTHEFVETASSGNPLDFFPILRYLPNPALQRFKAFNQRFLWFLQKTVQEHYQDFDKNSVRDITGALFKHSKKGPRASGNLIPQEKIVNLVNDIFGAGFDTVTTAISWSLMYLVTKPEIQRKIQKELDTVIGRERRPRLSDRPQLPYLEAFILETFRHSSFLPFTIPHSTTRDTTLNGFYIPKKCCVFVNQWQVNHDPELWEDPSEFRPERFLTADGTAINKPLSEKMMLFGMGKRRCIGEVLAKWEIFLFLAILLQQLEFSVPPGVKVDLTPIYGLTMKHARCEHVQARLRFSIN
# Outline: as §1
# CYP 2D6 = molecular target: T4, CYP 2D6 (Homo sapiens, UniProt P10635); assay: CYP inhibition in human liver microsomes, 2D6; assay type: in vitro ADME; conditions: pH 7.4, @ 10 μM concn
# T4 construct: from tissue; host or cells: human liver microsomes
# Outline: as §1
# CYP 3A4 = molecular target: T5, CYP 3A4 (Homo sapiens, UniProt P08684); assay: CYP inhibition in human liver microsomes, 3A4; assay type: in vitro ADME; conditions: pH 7.4, @ 10 μM concn
# T5 construct: from tissue; host or cells: human liver microsomes
# Outline: as §1
# [1] = molecular target: T6, recombinant purified human BTK (Homo sapiens, UniProt Q06187); assay: In vitro BTK kinase assay on ADP Glo platform; assay type: biochemical; conditions: 2 hr room temperature, read-out: In-vitro BTK inhibitory activity: IC50
# T6 construct: purchased SignalChem, USA
# Outline: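 Recombinant human BTK (3 ng/reaction) with compound dilutions in Tris pH 7.5, MgCl2/MnCl2, BSA, DTT; started with 50 µM ATP (final) and polyGln4Tyr1 substrate, 2 h at room temperature. ADP formed detected by ADP-Glo luminescence; IC50 by nonlinear fit versus uninhibited enzyme as 100%.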
# CYP 2C9 = molecular target: T7, CYP 2C9 (Homo sapiens, UniProt P11712); assay: CYP inhibition in human liver microsomes, 2C9; assay type: in vitro ADME; conditions: pH 7.4, @ 10 μM concn
# T7 construct: from tissue; host or cells: human liver microsomes
# Outline: as §1
# T4 sequence (P10635 whole entry): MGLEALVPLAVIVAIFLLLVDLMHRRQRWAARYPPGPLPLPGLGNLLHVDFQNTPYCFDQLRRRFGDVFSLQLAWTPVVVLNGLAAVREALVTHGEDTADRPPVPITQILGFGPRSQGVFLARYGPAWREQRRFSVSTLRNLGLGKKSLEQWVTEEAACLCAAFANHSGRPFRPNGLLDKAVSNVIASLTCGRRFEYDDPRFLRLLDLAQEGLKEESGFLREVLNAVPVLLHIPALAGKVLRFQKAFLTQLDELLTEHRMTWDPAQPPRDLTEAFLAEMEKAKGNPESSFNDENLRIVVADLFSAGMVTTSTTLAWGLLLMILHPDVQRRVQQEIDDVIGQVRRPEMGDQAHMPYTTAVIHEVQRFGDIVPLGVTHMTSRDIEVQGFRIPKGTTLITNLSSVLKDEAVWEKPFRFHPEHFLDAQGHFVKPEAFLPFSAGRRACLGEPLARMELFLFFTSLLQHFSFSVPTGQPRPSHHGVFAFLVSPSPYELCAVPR
# T6 sequence (Q06187 whole entry): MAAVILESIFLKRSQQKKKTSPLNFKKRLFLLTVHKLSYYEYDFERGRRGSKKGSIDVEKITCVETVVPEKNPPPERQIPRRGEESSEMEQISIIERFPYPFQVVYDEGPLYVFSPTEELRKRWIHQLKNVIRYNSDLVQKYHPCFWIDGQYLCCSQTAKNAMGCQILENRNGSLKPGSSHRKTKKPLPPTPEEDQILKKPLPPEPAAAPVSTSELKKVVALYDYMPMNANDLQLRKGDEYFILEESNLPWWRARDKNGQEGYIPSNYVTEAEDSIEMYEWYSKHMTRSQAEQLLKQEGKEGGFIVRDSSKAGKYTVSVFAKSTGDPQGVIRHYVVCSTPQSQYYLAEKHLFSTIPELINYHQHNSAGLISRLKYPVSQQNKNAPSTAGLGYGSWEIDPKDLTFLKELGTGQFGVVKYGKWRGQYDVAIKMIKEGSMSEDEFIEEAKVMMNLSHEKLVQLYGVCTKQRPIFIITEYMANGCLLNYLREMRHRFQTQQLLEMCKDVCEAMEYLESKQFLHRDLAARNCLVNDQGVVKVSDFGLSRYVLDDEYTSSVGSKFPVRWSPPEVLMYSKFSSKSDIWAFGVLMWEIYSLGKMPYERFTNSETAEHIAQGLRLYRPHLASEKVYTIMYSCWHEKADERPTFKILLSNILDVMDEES
# T7 sequence (P11712 whole entry): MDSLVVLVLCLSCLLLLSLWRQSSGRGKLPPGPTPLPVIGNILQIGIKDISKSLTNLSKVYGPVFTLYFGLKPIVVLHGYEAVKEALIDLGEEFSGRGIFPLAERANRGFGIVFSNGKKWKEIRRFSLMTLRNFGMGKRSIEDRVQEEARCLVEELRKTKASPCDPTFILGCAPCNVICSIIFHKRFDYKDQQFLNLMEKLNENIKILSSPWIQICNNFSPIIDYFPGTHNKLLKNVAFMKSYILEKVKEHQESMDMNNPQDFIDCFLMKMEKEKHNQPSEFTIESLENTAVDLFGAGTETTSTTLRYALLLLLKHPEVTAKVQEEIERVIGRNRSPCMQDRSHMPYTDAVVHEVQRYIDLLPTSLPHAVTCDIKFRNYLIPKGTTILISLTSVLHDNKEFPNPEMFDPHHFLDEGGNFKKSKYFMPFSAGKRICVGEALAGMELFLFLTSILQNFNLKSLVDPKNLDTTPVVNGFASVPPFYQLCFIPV
# T1 sequence (P33261 whole entry): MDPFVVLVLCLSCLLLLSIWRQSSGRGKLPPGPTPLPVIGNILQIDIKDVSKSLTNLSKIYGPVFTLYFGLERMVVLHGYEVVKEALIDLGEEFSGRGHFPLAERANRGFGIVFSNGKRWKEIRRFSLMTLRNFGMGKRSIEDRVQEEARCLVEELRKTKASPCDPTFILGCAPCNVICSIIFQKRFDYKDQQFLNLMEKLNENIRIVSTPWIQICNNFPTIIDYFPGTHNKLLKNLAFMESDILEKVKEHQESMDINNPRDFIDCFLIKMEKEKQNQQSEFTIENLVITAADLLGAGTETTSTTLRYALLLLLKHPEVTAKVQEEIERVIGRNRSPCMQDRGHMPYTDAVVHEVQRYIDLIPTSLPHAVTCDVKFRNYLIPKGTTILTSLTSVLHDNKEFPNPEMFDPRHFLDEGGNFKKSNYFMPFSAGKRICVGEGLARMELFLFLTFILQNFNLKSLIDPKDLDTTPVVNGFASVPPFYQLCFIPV
# T5 sequence (P08684 whole entry): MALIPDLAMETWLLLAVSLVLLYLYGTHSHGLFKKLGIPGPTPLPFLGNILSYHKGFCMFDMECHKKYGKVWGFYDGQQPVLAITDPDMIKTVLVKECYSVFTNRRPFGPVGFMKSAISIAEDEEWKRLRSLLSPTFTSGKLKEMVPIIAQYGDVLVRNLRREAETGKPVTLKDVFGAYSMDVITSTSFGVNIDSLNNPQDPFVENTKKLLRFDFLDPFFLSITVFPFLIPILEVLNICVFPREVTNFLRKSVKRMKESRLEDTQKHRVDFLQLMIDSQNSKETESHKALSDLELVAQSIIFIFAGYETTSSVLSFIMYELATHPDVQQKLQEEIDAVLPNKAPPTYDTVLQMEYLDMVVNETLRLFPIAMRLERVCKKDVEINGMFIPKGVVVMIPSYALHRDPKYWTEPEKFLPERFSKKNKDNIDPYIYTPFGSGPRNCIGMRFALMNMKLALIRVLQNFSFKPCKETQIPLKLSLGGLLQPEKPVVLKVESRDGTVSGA
SMILES,inhibition at 10 μM (CYP 2C19) [%],inhibition at 10 μM (CYP 2C8) [%],inhibition at 10 μM (CYP 1A2) [%],inhibition at 10 μM (CYP 2D6) [%],inhibition at 10 μM (CYP 3A4) [%],IC50 [1] [nM],inhibition at 10 μM (CYP 2C9) [%]
"C=CC(=O)N1CC2CC(n3nc(-c4ccc(NC(=O)c5cnccn5)cc4)c4c(N)ncnc43)CC2C1 (stereo not shown) [Compound 35, N-(4-(1-(2-acryloyloctahydrocyclopenta[c]pyrrol-5-yl)-4-amino-1H-pyrazolo[3,4-d]pyrimidin-3-yl)phenyl)pyrazine-2-carb oxamide]",< 50,< 50,< 50,< 50,< 50,1.2,< 50
"C=CC(=O)N1CC2CC(n3nc(-c4ccc5c(c4)OC(F)(F)O5)c4c(N)ncnc43)CC2C1 (stereo not shown) [Compound 36, 1-(5-(4-amino-3-(2,2-difluorobenzo[d] [1,3]dioxol-5-yl)-1H-pyrazolo [3,4-d]pyrimidin-1-yl)hexahydrocyclopenta[c]pyrrol-2(1H)-yl)prop-2-en-1-one]",< 50,< 50,< 50,< 50,< 50,1.1,< 50
"C=CC(=O)N1CC2CC(n3nc(-c4ccc(C(=O)Nc5cnccn5)cc4)c4c(N)ncnc43)CC2C1 (stereo not shown) [Compound 37, 4-(1-(2-acryloyloctahydrocyclopenta[c]pyrrol-5-yl)-4-amino-1H-pyrazolo[3,4-d]pyrimidin-3-yl)-N-(pyrazin-2-yl)benzamide]",< 50,< 50,< 50,< 50,< 50,1,< 50
"C=CC(=O)N1CC2CC(n3nc(-c4ccc(NC(=O)c5ccccc5)cc4)c4c(N)ncnc43)CC2C1 (stereo not shown) [Compound 38, N-(4-(1-(2-acryloyloctahydrocyclopenta[c]pyrrol-5-yl)-4-amino-1H-pyrazolo[3,4-d]pyrimidin-3-yl)phenyl)benzamide]",< 50,< 50,< 50,> 50,< 50,17,< 50
"C=CC(=O)N1CC2CC(n3nc(-c4ccc(-c5nnc(-c6ccccn6)s5)cc4)c4c(N)ncnc43)CC2C1 (stereo not shown) [Compound 39, 1-(5-(4-amino-3-(4-(5-(pyridin-2-yl)-1,3,4-thiadiazol-2-yl)phenyl)-1H-pyrazolo [3,4-d]pyrimidin-1-yl)hexahydrocyclopenta[c]pyrrol-2(1H)-yl)prop-2-en-1-one]",< 50,< 50,< 50,< 50,< 50,1.4,< 50
"C=CC(=O)N1CC2CC(n3nc(-c4ccc(C(=O)Nc5cc(C(F)(F)F)ccn5)cc4)c4c(N)ncnc43)CC2C1 (stereo not shown) [Compound 40, 4-(1-(2-acryloyloctahydrocyclopenta[c]pyrrol-5-yl)-4-amino-1H-pyrazolo[3,4-d]pyrimidin-3-yl)-N-(4-(trifluoromethyl)pyridin-2-yl)benzamide]",< 50,< 50,> 50,< 50,< 50,6,> 50
"C=CC(=O)N1CC2CC(n3nc(-c4ccc(/C(=N/c5cc(C)ccn5)OC)cc4)c4c(N)ncnc43)CC2C1 (stereo not shown) [Compound 41, (Z)-methyl 4-(1-(2-acryloyloctahydrocyclopenta[c]pyrrol-5-yl)-4-amino-1H-pyrazolo[3,4-d]pyrimidin-3-yl)-N-(4-methylpyridin-2-yl)benzimidate]",< 50,< 50,< 50,< 50,> 50,3.5,< 50
